According to ChEMBL document CHEMBL1201862, “PubChem BioAssay data set” (2004):
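Exposure lasted 48 hours, with cells grown in 96-well plates and compounds tested at five concentrations. At the GI50, growth is halved.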 Calls of active or inactive are those of the source. Cut-off read from the data, not from the text of the source: active = GI50 up to about 1.1 µM and inactive = higher.

Tests used:
Experiment in all cases: NCI tumour cell line growth inhibition, 48 h
K562 = test system: K562
SW-620 = test system: SW-620
SF-539 = test system: SF-539
HOP-92 = test system: HOP-92
SNB-19 = test system: SNB-19
HCT-15 = test system: HCT-15
NCI-H460 = test system: NCI-H460
SK-MEL-28 = test system: SK-MEL-28
TK-10 = test system: TK-10
UO-31 = test system: UO-31
UACC-257 = test system: UACC-257
OVCAR-8 = test system: OVCAR-8
RXF 631 = test system: RXF 631
HCT-116 = test system: HCT-116
UACC-62 = test system: UACC-62
CCRF-CEM = test system: CCRF-CEM
RPMI-8226 = test system: RPMI-8226
HL-60 = test system: HL-60
DMS-273 = test system: DMS-273
MOLT-4 = test system: MOLT-4
A549 = test system: A549
SNB-75 = test system: SNB-75
OVCAR-4 = test system: OVCAR-4
EKVX = test system: EKVX
U-251 = test system: U-251
SN12C = test system: SN12C
Malme-3M = test system: Malme-3M
CAKI-1 = test system: CAKI-1
SNB-78 = test system: SNB-78
KM-20L2 = test system: KM-20L2
HT-29 = test system: HT-29
SK-MEL-2 = test system: SK-MEL-2
786-0 = test system: 786-0
LOX IMVI = test system: LOX IMVI
ACHN = test system: ACHN
COLO 205 = test system: COLO 205
SK-OV-3 = test system: SK-OV-3
HOP-18 = test system: HOP-18
XF498 = test system: XF498
RXF 393 = test system: RXF 393
SK-MEL-5 = test system: SK-MEL-5
IGROV-1 = test system: IGROV-1
NCI-H23 = test system: NCI-H23
OVCAR-3 = test system: OVCAR-3
DLD-1 = test system: DLD-1
HOP-62 = test system: HOP-62
M14 = test system: M14
M19-MEL = test system: M19-MEL
SF-295 = test system: SF-295
DMS-114 = test system: DMS-114
OVCAR-5 = test system: OVCAR-5
NCI-H226 = test system: NCI-H226
SF-268 = test system: SF-268
HCC 2998 = test system: HCC 2998
LXFL 529 = test system: LXFL 529
KM12 = test system: KM12

With CC1C=C(OC(=O)c2ccccc2)C(=O)C(n2cc(F)c(=O)n(C(=O)c3ccccc3)c2=O)O1 (configuration not stated) the GI50 (K562) was 25.4 µM (inactive), the GI50 (SW-620) was 34.3 µM (inactive) and the GI50 (SF-539) was 89.5 µM (inactive). The GI50 (HOP-92) was 35.6 µM (inactive), the GI50 (SNB-19) was > 100 µM (inactive) and the GI50 (HCT-15) was 32.5 µM. For the same compound, the GI50 (NCI-H460) was > 100 µM (inactive), the GI50 (SK-MEL-28) was 46.8 µM (inactive) and the GI50 (TK-10) was 69.3 µM (inactive). For the same compound, the GI50 (UO-31) was 93.3 µM (inactive), the GI50 (UACC-257) was 70.1 µM (inactive) and the GI50 (OVCAR-8) was 37.2 µM (inactive). The GI50 (RXF 631) was 52 µM (inactive), the GI50 (HCT-116) was 32.1 µM (inactive) and the GI50 (UACC-62) was 35.3 µM (inactive). The GI50 (CCRF-CEM) was 18.1 µM (inactive), the GI50 (RPMI-8226) was 38.1 µM (inactive) and the GI50 (HL-60) was 23.9 µM (inactive). The GI50 (DMS-273) was 37.4 µM (inactive), the GI50 (MOLT-4) was 32.7 µM (inactive) and the GI50 (A549) was > 100 µM (inactive). The GI50 (SNB-75) was 49.2 µM (inactive), the GI50 (OVCAR-4) was 52.2 µM (inactive) and the GI50 (EKVX) was > 100 µM (inactive). For the same compound, the GI50 (U-251) was 37.3 µM (inactive), the GI50 (SN12C) was 53.1 µM (inactive) and the GI50 (Malme-3M) was 31 µM (inactive). The GI50 (CAKI-1) was 32.4 µM (inactive), the GI50 (SNB-78) was 51.2 µM (inactive) and the GI50 (KM-20L2) was 32.1 µM (inactive). For the same compound, the GI50 (HT-29) was 34.7 µM (inactive), the GI50 (SK-MEL-2) was 45.3 µM (inactive) and the GI50 (786-0) was 28.5 µM (inactive). The GI50 (LOX IMVI) was 23.1 µM (inactive), the GI50 (ACHN) was 50.5 µM (inactive) and the GI50 (COLO 205) was 26.9 µM (inactive). The GI50 (SK-OV-3) was > 100 µM (inactive), the GI50 (HOP-18) was > 100 µM (inactive) and the GI50 (XF498) was 21.8 µM (inactive). The GI50 (RXF 393) was 33.3 µM (inactive), the GI50 (SK-MEL-5) was 73.8 µM (inactive) and the GI50 (IGROV-1) was > 100 µM (inactive). The GI50 (NCI-H23) was 43 µM (inactive), the GI50 (OVCAR-3) was 22.9 µM (inactive) and the GI50 (DLD-1) was 41.6 µM (inactive). The GI50 (HOP-62) was > 100 µM (inactive), the GI50 (M14) was 51.3 µM (inactive) and the GI50 (M19-MEL) was 39.3 µM (inactive). The GI50 (SF-295) was 78 µM (inactive) and the GI50 (DMS-114) was 42.1 µM (inactive).

With Cc1ccc(NC(=O)CC/C(CC(=O)C(C)(C)C)=N/NC(=O)c2cc3ccccc3cc2O)cc1C the GI50 (K562) was > 10 µM (inactive), the GI50 (SW-620) was 48 µM (inactive) and the GI50 (HOP-92) was 47.6 µM (inactive). The GI50 (SNB-19) was 39.5 µM (inactive), the GI50 (HCT-15) was 27.7 µM and the GI50 (NCI-H460) was 39.4 µM (inactive). For the same compound, the GI50 (SK-MEL-28) was 80 µM (inactive), the GI50 (UO-31) was 38.6 µM (inactive) and the GI50 (UACC-257) was 38.1 µM (inactive). For the same compound, the GI50 (OVCAR-8) was 26.8 µM (inactive), the GI50 (RXF 631) was 44.1 µM (inactive) and the GI50 (HCT-116) was 40.3 µM (inactive). For the same compound, the GI50 (OVCAR-5) was 32.1 µM (inactive), the GI50 (UACC-62) was 24.5 µM (inactive) and the GI50 (CCRF-CEM) was 16.2 µM (inactive). The GI50 (HL-60) was 20.4 µM (inactive), the GI50 (MOLT-4) was 17.7 µM (inactive) and the GI50 (OVCAR-4) was 30.8 µM (inactive). For the same compound, the GI50 (EKVX) was 36.5 µM (inactive), the GI50 (U-251) was 35.6 µM (inactive) and the GI50 (SN12C) was 33.6 µM (inactive). The GI50 (NCI-H226) was 37.2 µM (inactive), the GI50 (Malme-3M) was 35.2 µM (inactive) and the GI50 (SF-268) was 33.3 µM (inactive). For the same compound, the GI50 (CAKI-1) was > 100 µM (inactive), the GI50 (HCC 2998) was 29.2 µM (inactive) and the GI50 (SNB-78) was 60.5 µM (inactive). For the same compound, the GI50 (KM-20L2) was 34.5 µM (inactive), the GI50 (HT-29) was 41.7 µM (inactive) and the GI50 (SK-MEL-2) was 32.4 µM (inactive). The GI50 (LOX IMVI) was 20.3 µM (inactive), the GI50 (ACHN) was 31 µM (inactive) and the GI50 (COLO 205) was 39.1 µM (inactive). The GI50 (SK-OV-3) was 50 µM (inactive), the GI50 (LXFL 529) was 35.2 µM (inactive) and the GI50 (HOP-18) was 32.1 µM (inactive). The GI50 (KM12) was 36.6 µM (inactive), the GI50 (RXF 393) was 35.2 µM (inactive) and the GI50 (IGROV-1) was 32.8 µM (inactive). The GI50 (NCI-H23) was 19.6 µM (inactive), the GI50 (OVCAR-3) was 32.7 µM (inactive) and the GI50 (DLD-1) was 30 µM (inactive). For the same compound, the GI50 (HOP-62) was 36.8 µM (inactive), the GI50 (M14) was 32.5 µM (inactive) and the GI50 (M19-MEL) was 39.4 µM (inactive). The GI50 (SF-295) was 17.9 µM (inactive) and the GI50 (DMS-114) was 31.6 µM (inactive).
